We go through four compounds from PMC8942850, “Boron clusters as broadband membrane carriers” (Nature, 2022).

In series [1] the test system is HeLa cells. The series is described as follows: Confocal imaging of TAMRA-R8 / TAMRA-D-R8 / TAMRA uptake in living cells. Particulars: HeLa, 1, 10 or 50 µM TAMRA, 10 µM B12Br12^2− in HKR, 1 h. From the text:
(§1) Representative images of two biological replicates. […] Scale bars, 50 μm.
Representative images of two biological replicates. […] Source data
(1 picture or pasted object on this page, not shown here)

Series [2] concerns HeLa cells. The series can be described thus: Phalloidin-TRITC delivery, confocal imaging of F-actin staining. The settings on record: living HeLa cells, HKR buffer, 3 h, 500 nM cargo concentration. Format: cell-based. As for the experimental part:
as §1
Cells were incubated with 7 µM phalloidin-TRITC (red) in the absence (left) and presence of 50 µM ^AcR8 (middle) or 50 µM of B12Br12^2− cluster (right) in HKR buffer for 3 h, subsequently stained with Hoechst (blue), washed with DMEM without phenol red, and imaged by confocal fluorescence microscopy; bright-field images in insets. Micrographs from each cell line were processed independently, experiments were performed twice. e, MTT viability assay of the corresponding cell lines (HeLa, GT1-7, ARPE-19 and A549, from left to right) at different concentrations (0, 25, 75, 250, and 500 µM) of B12Br12^2− (black) or ^AcR8 (red); data are mean ± s.d. of five measurements. f, Confocal images of HeLa cells after incubation with 500 nM phalloidin-TRITC and different concentrations B12Br12^2−; the images correspond to those of Fig. 4 in the main text, but are shown with increased brightness to facilitate observation of the actin filaments. Representative images of two biological replicates. All scale bars are […], except for panel f (50 µm). Source data

The test system of series [3] is Escherichia coli Top10 strain. The series can be described thus: Kanamycin A delivery in E. coli (OD570 growth). Format: cell-based. The settings on record: for mean_norm_OD570: LB, 37 °C, 18 h, mean of triplicate. On the procedure: As a proof-of-principle, we investigated its potential to reduce the minimum inhibitory concentration of kanamycin A, an aminoglycoside antibiotic. Aminoglycosides function by binding to the bacterial 30S ribosomal subunit; consequently, effective passage through the cell wall and plasma membrane is essential for aminoglycosides to reach their intracellular targets. […]
A preculture of E. coli Top10 cells was incubated overnight in LB medium with 50 µg ml^−1 streptomycin sulfate. […] After 18 h, the optical density at 570 nm, as an indicator of bacterial growth, was measured with a Tecan Infinite F200Pro microplate reader. Data were normalized for each concentration of B12Br12^2− relative to the control condition without antibiotic.
Solid points indicate mean ± s.d. of three technical replicates. […] Cross-bars indicate mean ± s.d. of three independent experiments (two with technical triplicates, one with technical duplicates); values obtained in each experiment are represented by different shapes. c, Viability of HeLa cells after incubation with different doses of MMAF in the presence of 0, 5 and 10 μM B12Br12^2−. Solid points indicate mean ± s.d. of three technical replicates. d, Corresponding IC50 values of MMAF. […] Source data

The nature of series [4]: HPTS/DPX transport assay in zwitterionic EYPC vesicles. Format: in vitro ADME. Set-up: key to Et: Et = Ymax × (pEC50/ft); pEC50 = −log EC50. As for the experimental part:
The well-established HPTS/DPX assay, which uses 8-hydroxypyrene-1,3,6-trisulfonate (HPTS) and p-xylene-bis-pyridinium (DPX), was implemented to monitor peptide-transport activation (Fig. 2a). […] A surfactant (Triton X-100) was added at the end of the experiment (t = 600 s) to release all vesicle content and normalize the fluorescence intensity data.
Fig. 2 Carrier activity obtained from the HPTS/DPX assay. a, Schematic representation of the transport of otherwise impermeable analytes facilitated by superchaotropic cluster anions with encapsulated HPTS/DPX probe/quencher pair used for signalling. […] Concentrations of carrier and cargo, when fixed, were 40 and 20 µM, respectively, unless explicitly stated. Source data
A thin lipid film was prepared by evaporating a lipid solution with a stream of nitrogen and then dried in vacuo overnight.
Fluorescence intensities were normalized to fractional emission as I(t) = (It − I0)/(I∞ − I0), where I0 = It before cluster addition and I∞ = It after lysis.
In the activator measurements, in which different activators were tested with the same cargo, the activator efficiency (Ea) is determined from their ability to activate the transport of an impermeable cargo molecule and is characterized by Ymax, its maximal activity, and EC50, the effective activator concentration. A potent activator reaches high Ymax at low EC50. To reflect both factors, the activator efficiency is defined as Ea = Ymax × (pEC50/fa), where pEC50 is the negative logarithm of EC50.
In the transport measurements, in which different types of cargo were tested with the same activator, the transport efficiency (Et) reports on the sensitivity of the cargo for being transported and is described by Ymax, the maximal activity, and EC50, the effective cargo concentration. An easily accessible cargo reaches high Ymax at low EC50. The transport efficiency is defined as a composition of both parameters according to Et = Ymax × (pEC50/ft), where pEC50 is the negative logarithm of EC50.
Extended Data Fig. 3 Transport activity. a, Transport activity, Y, in EYPC⊃HPTS/DPX vesicles as a function of cluster concentration at constant cargo concentration (WR7, 20 µM). b, Transport activity, Y, for B12Br12^2− (40 µM) in EYPC⊃HPTS/DPX vesicles as a function of the concentration of different cargo types; red lines correspond to the resulting fit with the Hill equation. Source data

The conditions of series [5]: gold standard in the field; cited from earlier work. The text has this: U-tube transport experiments, across a bulk chloroform layer, unambiguously confirmed that the brominated cluster served as a non-covalent carrier across a hydrophobic bulk barrier (Extended Data Fig. 2a, b). To quantitatively characterize the transport efficiency of the new cluster carriers, the normalized fluorescence responses in the vesicle experiments (Fig. 2b) were plotted against cluster concentration to produce dose–response curves (Fig. 2c and Extended Data Fig. 3a). We extracted, by Hill analysis, the salient parameters: the maximal activity (Ymax), the concentration needed to achiev ...

Read-outs that look alike come from different tables or passages of the source.

Regarding TAMRA [reference compound], the “Transport of non-conjugated dye by B12Br12^2−” value in series [1] is given as “not carried”.

For Phalloidin-TRITC, the “F-actin staining after B12Br12^2−-triggered membrane passage” value in series [2] is listed as “excellent staining of the F-actin target”.

As for kanamycin A, the mean_norm_OD570 in series [3] (Kanamycin 3 µg/mL, B12Br12 0, normalised to no-antibiotic control) is listed as 68.2744; in series [3] (Kanamycin 3 µg/mL, B12Br12 500 mM, normalised to no-antibiotic control at same B12Br12), 9.048; in series [3] (Kanamycin 3 µg/mL, B12Br12 750 mM, normalised to no-antibiotic control at same B12Br12), 0.7906; in series [3] (Kanamycin 3 µg/mL, B12Br12 1000 mM, normalised to no-antibiotic control at same B12Br12), 0.4633; in series [3] (Kanamycin 2.5 mg/mL, B12Br12 0 (so in the source), normalised to no-antibiotic control) it was 70.6541; in series [3] (Kanamycin 2.5 mg/mL, B12Br12 500 mM (so in the source), normalised to no-antibiotic control at same B12Br12), 24.7877. The mean_norm_OD570 in series [3] (Kanamycin 2.5 mg/mL, B12Br12 750 mM (so in the source), normalised to no-antibiotic control at same B12Br12) amounted to 9.686; in series [3] (Kanamycin 2.5 mg/mL, B12Br12 1000 mM (so in the source), normalised to no-antibiotic control at same B12Br12) it was 14.0089; in series [3] (Kanamycin 3.5 mg/mL, B12Br12 0 (so in the source), normalised to no-antibiotic control), 58.481; in series [3] (Kanamycin 3.5 mg/mL, B12Br12 500 mM (so in the source), normalised to no-antibiotic control at same B12Br12), 0.383; in series [3] (Kanamycin 3.5 mg/mL, B12Br12 750 mM (so in the source), normalised to no-antibiotic control at same B12Br12), 0.005219; in series [3] (Kanamycin 3.5 mg/mL, B12Br12 1000 mM (so in the source), normalised to no-antibiotic control at same B12Br12), 0.103. Also, the “E. coli viability, absence of cluster” value in series [3] (kanamycin A 3.5 µg ml^−1, no B12Br12^2−) is recorded as 60%. Besides, in series [3] (kanamycin A 3.5 µg ml^−1 with B12Br12^2−), the “E. coli viability, presence of the cluster carrier” value is given as under 1%. The same compound registered an Et transport efficiency in series [4] (Et = Ymax × (pEC50/ft), ft = 19.8 so that WR7 equals 10.0, B12Br12^2− (40 μM) carrier, 5% error (SD) unless stated) of 1.7 ± 0.2. The Et in series [4] (Fig.2 d, per analyte (cargo)) stood at 1.7. Also, the “Ymax (%) maximal activity, transport of cargo” value in series [4] (cargo concentration varied, B12Br12^2− (40 μM) as common carrier, EYPC⊃HPTS/DPX vesicles, 13 µM lipid, 10 mM Tris, 107 mM NaCl, pH 7.4, HPTS fluorescence, Hill analysis, 10% error (SD) unless stated, n.t. = no detectable transport) came to 54 ± 6%. Further, the EC50 in series [4] (read-out: EC50 (μM) effective cargo concentration to reach 50% of Ymax, cargo concentration varied, B12Br12^2− (40 μM) as common carrier, EYPC⊃HPTS/DPX vesicles, pH 7.4, Hill analysis, 10% error (SD) unless stated, n.t. = no detectable transport) came to 235 ± 70 µM.

Turning to `O=C(O)CCCc1ccc2ccc3cccc4ccc1c2c34` [Pyrenebutyrate (1), pyrenebutyrate, reference compound], the Ea activator efficiency result in series [5] is “≈ 5”; in series [4] (Ea = Ymax × (pEC50/fa), fa = 20.6, WR7 (20 μM) cargo, 10% error (SD)), 4.9. The “Activation of oligolysine (WK7) membrane transport” value in series [4] (WK7 cargo, HPTS/DPX assay) is on record as “fails to trigger any signal”. Besides, in series [4] (carrier concentration varied, WR7 (20 μM) as common cargo, EYPC⊃HPTS/DPX vesicles, 13 µM lipid, 10 mM Tris, 107 mM NaCl, pH 7.4, HPTS fluorescence, Hill analysis, 10% error (SD) unless stated, n.a. = no detectable activity, d.l. = dye leakage, no determination possible), the “Ymax (%) maximal activity, carrier activity” value is listed as 100%. In addition, the “Activity as activator for the newly introduced targets” value in series [4] (membrane-impermeable analytes (100 µM), HPTS/DPX assay) was “no activity”. Also, the EC50 in series [4] (read-out: EC50 (μM) effective carrier concentration to reach 50% of Ymax, carrier concentration varied, WR7 (20 μM) as common cargo, EYPC⊃HPTS/DPX vesicles, pH 7.4, Hill analysis, 10% error (SD) unless stated, n.a. = no detectable activity, d.l. = dye leakage, no determination possible) was 103 µM.
